The source of these data is paper PMC8691200 (Journal of Chemical Information and Modeling, 2021).

Each structure is given as a SMILES string. “Also recorded” adds a separate entry of the source.

The test system of data set [1] is SARS-CoV-2. To be noted: Vero E6 cells; cited from earlier work.
Data set [2] relates to SARS-CoV-2. To be noted: Vero E6 cells, real-time polymerase chain reaction; cited from earlier work.
Data set [3] relates to SARS-CoV-2 MEX-BC2/2020 strain. Format: cell-based.

Regarding `C=C[C@@]1(C)CC(=O)[C@]2(O)[C@@]3(C)[C@@H](O)CCC(C)(C)[C@@H]3[C@H](OC(=O)CCN(C)C)[C@H](OC(C)=O)[C@@]2(C)O1.Cl` [NKH477], in the data set with SARS-CoV-2 [1], the “CPE (% efficacy)” value was 45%.

In the case of `CCOC(=O)c1c(CSc2ccccc2)n(C)c2cc(Br)c(O)c(CN(C)C)c12` [Compound 1, Arbidol], the “maximum inhibition of virus entry” value with SARS-CoV-2 [2] was 70%. Further, the “cytotoxicity in viability assays” value in the data set on Vero E6 cells is “dose-dependent trend of cytotoxicity”. Moreover, the safety ratio in the data set with Vero E6 cells (African green monkey) was determined as 2.3. Further, the “compound precipitation or recrystallization in micrographs” value (25 μM, 96 h incubation with infected cells) was “no observed compound precipitation or recrystallization”. The “aqueous solubility” value (solubilized in DMSO or buffer (for salts)) is on record as “good aqueous solubility”.

On to `COc1ccc2cc1Oc1ccc(cc1)C[C@H]1c3c(cc4c(c3Oc3cc5c(cc3OC)CCN(C)[C@@H]5C2)OCO4)CCN1C` [Cepharanthine], for which, in the data set on SARS-CoV-2 [1], the “CPE (% efficacy)” value was 92%.

For the compound `CC(CN(C)C)CN1c2ccccc2CCc2ccccc21` (centres unmarked) [trimipramine], the “CPE (% efficacy)” value in the data set with SARS-CoV-2 [1] was 48%.

For `CC1=C[C@]23C(=O)[C@@H](C=C(CO)[C@@H](O)[C@]2(O)[C@H]1O)[C@H]1[C@@H](C[C@H]3C)C1(C)C` [ingenol], in the data set with SARS-CoV-2 [1], the “CPE (% efficacy)” value is on record as 38.2%.

In the case of `N#C[C@@]1(c2ccc3c(N)ncnn23)O[C@H](CO)[C@@H](O)[C@H]1O` [GS-441524], in data set [3], the “maximum % inhibition observed” value is on record as 100% and the “prevention of virus-induced CPE” value was “prevented completely the virus-induced CPE; also recorded: completely prevented the virus-induced CPE”.
